Experimental data published in ChEMBL document CHEMBL1136524, “Substituted 2-pyridinemethanol derivatives as potent and selective phosphodiesterase-4 inhibitors” (Bioorg Med Chem Lett, 2003).

Legend:
Homo sapiens = organism: Homo sapiens; assay: Ability to inhibit LPS-induced TNF-alpha formation in human whole blood (HWB); type: functional, organism-based
[1] = biological target: T1, 3',5'-cyclic-AMP phosphodiesterase 4A (Homo sapiens, UniProt P27815); assay: In vitro inhibitory activity against Phosphodiesterase 4A (PDE4)
T1 sequence (P27815 whole entry): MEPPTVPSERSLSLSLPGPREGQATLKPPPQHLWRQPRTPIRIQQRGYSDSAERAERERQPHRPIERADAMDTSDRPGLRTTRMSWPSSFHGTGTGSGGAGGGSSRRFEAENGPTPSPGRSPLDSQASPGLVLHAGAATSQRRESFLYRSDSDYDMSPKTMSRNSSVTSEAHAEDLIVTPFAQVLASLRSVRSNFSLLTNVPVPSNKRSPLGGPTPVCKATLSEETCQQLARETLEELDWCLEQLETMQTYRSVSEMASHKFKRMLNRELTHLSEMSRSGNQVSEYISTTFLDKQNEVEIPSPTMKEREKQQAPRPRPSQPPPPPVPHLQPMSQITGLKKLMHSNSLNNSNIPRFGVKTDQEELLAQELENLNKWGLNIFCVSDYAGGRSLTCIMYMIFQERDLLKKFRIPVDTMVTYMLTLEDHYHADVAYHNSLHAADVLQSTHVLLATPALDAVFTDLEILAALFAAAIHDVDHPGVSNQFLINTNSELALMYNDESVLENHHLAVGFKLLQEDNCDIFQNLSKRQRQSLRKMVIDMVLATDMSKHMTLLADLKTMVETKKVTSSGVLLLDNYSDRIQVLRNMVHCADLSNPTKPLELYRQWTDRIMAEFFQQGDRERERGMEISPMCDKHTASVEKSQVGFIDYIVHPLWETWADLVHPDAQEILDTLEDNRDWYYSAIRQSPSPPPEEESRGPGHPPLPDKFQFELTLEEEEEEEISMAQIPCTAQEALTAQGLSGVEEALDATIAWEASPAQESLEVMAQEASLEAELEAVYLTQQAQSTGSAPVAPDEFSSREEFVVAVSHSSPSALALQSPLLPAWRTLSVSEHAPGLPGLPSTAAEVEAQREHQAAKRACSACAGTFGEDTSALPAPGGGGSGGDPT

[2] = biological target: T1, 3',5'-cyclic-AMP phosphodiesterase 4A; assay: Inhibition of Phosphodiesterase-4A (PDE4)
[3] = Half life period was determined in squirrel monkey after iv administration at a dose of 5 mg/kg; type: ADME, organism-based; set-up: dose 5 mg/kg, route intravenous; conditions: in vivo
[4] = Oral bioavailability in squirrel monkey at a dose of 10 mg/kg; type: ADME, organism-based, Saimiri sciureus; conditions: in vivo
[5] = Maximal plasma concentration in squirrel monkeys; type: ADME, organism-based
[6] = Oral bioavailability in rat; type: ADME, organism-based; conditions: in vivo
[7] = Half life period was determined in rat after iv administration at a dose of 5 mg/kg; type: ADME, organism-based; set-up: dose 5 mg/kg, route intravenous; conditions: in vivo
Cavia porcellus = assay: Inhibition of ovalbumin induced bronchoconstriction in conscious guinea pig after ip administration at 0.3 mg/kg (0.5 hr pre-treatment); type: functional; conditions: route intraperitoneal
Ovis aries [8] = assay: Inhibition of ascaris-induced bronchoconstriction in conscious sheep at 0.5 mg/kg iv dose late phase; type: functional
Ovis aries [9] = assay: Inhibition of ascaris-induced bronchoconstriction in conscious sheep at 0.5 mg/kg iv dose at early phase; type: functional

| SMILES | IC50 (Homo sapiens; Homo sapiens, Blood) [nM] | IC50 [1] [nM] | further results |
| --- | --- | --- | --- |
| [O-][n+]1ccc(CC(c2ccc(C(O)(c3ccccc3)c3ccccc3)nc2)c2ccc(OC(F)F)c(OC(F)F)c2)cc1 (configuration not stated) | 550 | 0.8 |  |
| CC(O)(c1ccc(C(Cc2cc[n+]([O-])cc2)c2ccc(OC(F)F)c(OC(F)F)c2)cn1)C1CCCCC1 (configuration not stated) | 300 | 1.2 |  |
| CC(C)(O)c1ccc(C(Cc2cc[n+]([O-])cc2)c2ccc(OC(F)F)c(OC(F)F)c2)cn1 (configuration not stated) | 890 | 40 |  |
| [O-][n+]1ccc(CC(c2ccc(C(O)c3ccccc3)nc2)c2ccc(OC(F)F)c(OC(F)F)c2)cc1 (configuration not stated) | 360 |  | IC50 [2]: 6 nM |
| CC(O)(c1ccc(C(Cc2cc[n+]([O-])cc2)c2ccc(OC(F)F)c(OC(F)F)c2)cn1)c1nccs1 (configuration not stated) | 490 | 6 |  |
| [O-][n+]1ccc(CC(c2ccc(C(O)(c3ccccc3)C(F)(F)F)nc2)c2ccc(OC(F)F)c(OC(F)F)c2)cc1 (configuration not stated) | 460 | 2.4 |  |
| O=C(c1ccccc1)c1ccc(C(Cc2cc[n+]([O-])cc2)c2ccc(OC(F)F)c(OC(F)F)c2)cn1 (configuration not stated) | 600 |  | IC50 [2]: 23 nM |
| CCCCC(C)(O)c1ccc(C(Cc2cc[n+]([O-])cc2)c2ccc(OC(F)F)c(OC(F)F)c2)cn1 (configuration not stated) | 340 | 6 |  |
| [O-][n+]1ccc(CC(c2ccc(Cc3ccccc3)nc2)c2ccc(OC(F)F)c(OC(F)F)c2)cc1 (configuration not stated) | 770 | 3 |  |
| CC(=O)c1ccc(C(Cc2cc[n+]([O-])cc2)c2ccc(OC(F)F)c(OC(F)F)c2)cn1 (configuration not stated) | 2200 | 102 |  |
| COc1ccc([C@H](Cc2ccncc2)c2ccccc2)cc1OC1CCCC1 [CDP840] | 16000 |  |  |

The next lines start with results.

| IC50 (Homo sapiens; Homo sapiens, Blood) [nM] | IC50 [1] [nM] | SMILES | further results |
| --- | --- | --- | --- |
| 370 | 0.8 | CC(C)C(O)(c1ccccc1)c1ccc(C(Cc2cc[n+]([O-])cc2)c2ccc(OC(F)F)c(OC(F)F)c2)cn1 (configuration not stated) |  |
| 160 |  | CCC(O)(c1ccccc1)c1ccc(C(Cc2cc[n+]([O-])cc2)c2ccc(OC(F)F)c(OC(F)F)c2)cn1 (configuration not stated) | IC50 [2]: 1 nM |
|  | 48 | CC(O)(c1ccccc1)c1ccc(C(Cc2cc[n+]([O-])cc2)c2ccc(OC(F)F)c(OC(F)F)c2)cn1 (mixture of isomers) | IC50 (Homo sapiens): 3500 nM |
|  | 0.6 | CC(O)(c1ccccc1)c1ccc(C(Cc2cc[n+]([O-])cc2)c2ccc(OC(F)F)c(OC(F)F)c2)cn1 (racemic) | IC50 (Homo sapiens): 350 nM |
|  | 2 | CC(O)(c1ccccc1)c1ccc(C(Cc2cc[n+]([O-])cc2)c2ccc(OC(F)F)c(OC(F)F)c2)cn1 (single isomer, unassigned; diastereomer 1) | half-life [3]: 2.2 h; bioavailability [4]: 73%; Cmax [5]: 2200 nM; bioavailability [6]: 57%; half-life [7]: 1.5 h; Inhibition (Cavia porcellus): 62%; IC50 (Homo sapiens): 160 nM; inhibition in vivo at 0.5 mg/kg (Ovis aries [8]): 91%; inhibition in vivo at 0.5 mg/kg (Ovis aries [9]): 33% |
|  | 1 | CC(O)(c1ccccc1)c1ccc(C(Cc2cc[n+]([O-])cc2)c2ccc(OC(F)F)c(OC(F)F)c2)cn1 (single isomer, unassigned; diastereomer 2) | Inhibition (Cavia porcellus): 34%; IC50 (Homo sapiens): 110 nM |
